Data published in patent US9434705B2, “L-setastine hydrochloride and preparation method thereof” (ANHUI QINGYUN PHARMACEUTICAL & CHEMICAL CO., LTD., priority 2011, dated 2016).

How the values were obtained:
guinea pigs [1] = assay: histamine-induced death of guinea pigs after oral dosing of test sample; format: in vivo, guinea pig; details: for Number of death: gavage for two days, then histamine 20 mg/kg, deaths within 24 hours, + = died next day; for Death Percentage: histamine 20 mg/kg; for protective effect on histamine-induced death for guinea pigs: 0.16-0.68 mg/kg, result in words
Method: 1. Sample name: KL-001 (R-setastine hydrochloride prepared in embodiment 6), KL-002 (L-setastine hydrochloride prepared from embodiment 2, 3, 4, 5, or 6), and KL-003 (setastine hydrochloride racemic) provided by Anhui Kelong medicine research institute).
2. The specifications of content: There are three groups of each sample, which is high, medium, and small-dose group, wherein dosages for high, medium, small-dose group are 0.68 mg/kg, 0.32 mg/kg, and 0.16 mg/kg respectively. The dosages are considerable 20, 10, and 5 times comparing with the clinical dosages.
3. The preparation method for test sample: For the KL-001 sample, 84 ml of distilled water is added to KL-001 sample so as to obtain a large-dose group of KL-001, which is according to the gavage feeding volume of guinea pigs, which is 0.1 ml/100 g, which is the same as 0.68 mg/kg; and medium and small-does group of KL-001 are diluted by the high-dose group of KL-001 for double and quadruple times. For the KL-002 sample, 125 ml of distilled water is added to KL-002 sample to obtain a large-dose group of KL-002, which is according to the gavage feeding volume of guinea pigs, which is 0.1 ml/100 g, which is the same as 0.68 mg/kg; and medium and small-does group are diluted by the high-dose group for double and quadruple times. For KL-003 sample, 75 ml of distilled water is added to KL-003 sample so as to obtain a large-dose group of KL-003, which is according to the gavage feeding volume of guinea pigs, which is 0.1 ml/100 g, which is the same as 0.68 mg/kg; and medium and small-does group of KL-003 are diluted by the high-dose group of Kl-003 for double and quadruple times.
112 guinea pigs are fed in the feeding environment (to adapt in the environment) for three days, and are randomly divided into 10 groups, namely a control group, a high-dose group of KL-001, a medium-dose group of KL-001, a small-dose group of KL-001, a high-dose group of KL-002, a medium-dose group of KL-002, a small-dose group of KL-002, a high-dose group of KL-003, a medium-dose group of KL-003, and a small-dose group of KL-003. The dosage for high-dose group of Kl-001, KL-002, and Kl-003 is 0.68 mg/kg, and the dosage for medium-dose group of Kl-001, KL-002, and Kl-003 is 0.32 mg/kg, and the dosage for small-dose group of Kl-001, KL-002, and Kl-003 is 0.16 mg/kg, which are 20, 10, 5 times respectively comparing with the clinical dose. Each guinea pig from each group is fed by corresponding amounts of test sample for two days, which is according to the amount of 0.1 ml/100 g. Finally, each guinea pig is fed with lethal dose of histamine, which is 20 mg/kg after the last injection of test sample, and then observing the number of deaths of guinea pigs within 24 hours.

guinea pigs [2] = details: background statement; cited from earlier work
patients = details: racemic drug, China market; cited from earlier work
[3] = inventors' finding on antihistaminic effect and sedation of D-setastine hydrochloride; details: result in words

Compound | Number of death (guinea pigs [1]; 0.16 mg/kg (small dose)) | Death Percentage (guinea pigs [1]; 0.16 mg/kg (small dose)) | Number of death (guinea pigs [1]; 0.32 mg/kg (medium dose)) | Death Percentage (guinea pigs [1]; 0.32 mg/kg (medium dose)) | Number of death (guinea pigs [1]; 0.68 mg/kg (high dose)) | Death Percentage (guinea pigs [1]; 0.68 mg/kg (high dose)) | protective effect on histamine-induced death for guinea pigs (guinea pigs [1]) | protective effect on histamine-induced death for guinea pigs (guinea pigs [1]; listed as setastine hydrochloride racemic) | histamine-induced bronchial spasms (guinea pigs [2]) | sedative side effects in clinical use (patients) | protective effect on histamine-induced death for guinea pigs (guinea pigs [1]; listed as D-setastine hydrochloride) | protective effect on histamine-induced death for guinea pigs (guinea pigs [1]; listed as Kl-001) | antihistaminic effect [3] | side effects of sedation [3] | protective effect on histamine-induced death for guinea pigs (guinea pigs [1]; listed as L-setastine hydrochloride) | protective effect compared with setastine hydrochloride racemic (guinea pigs [1]; comparison in words)
CC(OCCN1CCCCCC1)(c1ccccc1)c1ccc(Cl)cc1 (racemic) [KL-003] | 6 + 2 | 66% | 3 + 1 | 36% | 1 + 1 | 16% | significant protective effect | have protective effects | inhibit | stronger sedative side effects | – | – | – | – | – | –
CC(OCCN1CCCCCC1)(c1ccccc1)c1ccc(Cl)cc1.Cl (stereo not drawn) | 11 | 100% | 11 | 100% | 11 | 100% | doesn't has the protective effect | – | – | – | no protective effect | doesn't has protective effect | no antihistaminic effect | can produce side effects of sedation | – | –
C[C@@](OCCN1CCCCCC1)(c1ccccc1)c1ccc(Cl)cc1 [KL-002] | 4 + 1 | 45% | 2 | 18% | 0 | 0% | significant protective effect | – | – | – | – | – | – | – | have protective effects | stronger
